Test results reported in the supplement of paper PMC5908809.

Legend:
[1] = test system: normal NK cells expanded with K562-aAPC; assay: percent inhibition of viability; higher = more inhibition; conditions: 72 h, IL-2 2.5 ng/mL
Method: (§1)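 Drug sensitivity and resistance testing on K562-aAPC-expanded normal NK cells: 5 concentrations (10-fold steps over a 10,000-fold range), 72 h at 37 °C, viability by CellTiter-Glo normalised to DMSO and benzethonium chloride controls; DSS from the fitted curve.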

[2] = test system: NKL (IL-2 2.5 ng/mL); assay: drug sensitivity score (DSS) (DSS units); higher = more sensitive; extreme values may be limits of the assay; conditions: 72 h
[3] = test system: KAI3 (IL-2 2.5 ng/mL); assay: as above; conditions: 72 h
[4] = test system: normal primary NK cells, pool 1 (3 donors) (IL-2 2.5 ng/mL); assay: as above; conditions: 72 h
[5] = test system: KHYG-1 (IL-2 2.5 ng/mL); assay: as above; conditions: 72 h
[6] = test system: normal primary NK cells, pool 3 (3 donors) (IL-2 2.5 ng/mL); assay: as above; conditions: 72 h
[7] = test system: NK-YS (IL-2 2.5 ng/mL); assay: as above; conditions: 72 h
[8] = test system: NK-92 (IL-2 2.5 ng/mL); assay: as above; conditions: 72 h
[9] = test system: YT (IL-2 2.5 ng/mL); assay: as above; conditions: 72 h
[10] = test system: SNK-6 (IL-2 2.5 ng/mL); assay: as above; conditions: 72 h
[11] = test system: normal primary NK cells, pool 1 (3 donors), resting (IL-2 0 ng/mL); assay: as above; conditions: 72 h
[12] = test system: DERL-7 (IL-2 2.5 ng/mL); assay: as above; conditions: 72 h
[13] = test system: normal primary NK cells, pool 2 (3 donors) (IL-2 2.5 ng/mL); assay: as above; conditions: 72 h
[14] = test system: IMC-1 (IL-2 20 ng/mL); assay: as above; conditions: 72 h
[15] = test system: normal NK cells expanded with K562-aAPC; assay: as above; conditions: 72 h; IL-2 2.5 ng/mL
Method: as §1

[16] = test system: NKL (IL-2 2.5 ng/mL); assay: percent inhibition of viability; higher = more inhibition; conditions: 72 h
[17] = test system: KAI3 (IL-2 2.5 ng/mL); assay: as above; conditions: 72 h
[18] = test system: normal primary NK cells, pool 1 (3 donors) (IL-2 2.5 ng/mL); assay: as above; conditions: 72 h
[19] = test system: KHYG-1 (IL-2 2.5 ng/mL); assay: as above; conditions: 72 h
[20] = test system: normal primary NK cells, pool 3 (3 donors) (IL-2 2.5 ng/mL); assay: as above; conditions: 72 h
[21] = test system: NK-YS (IL-2 2.5 ng/mL); assay: as above; conditions: 72 h
[22] = test system: NK-92 (IL-2 2.5 ng/mL); assay: as above; conditions: 72 h
[23] = test system: YT (IL-2 2.5 ng/mL); assay: as above; conditions: 72 h
[24] = test system: SNK-6 (IL-2 2.5 ng/mL); assay: as above; conditions: 72 h
[25] = test system: normal primary NK cells, pool 1 (3 donors), resting (IL-2 0 ng/mL); assay: as above; conditions: 72 h
[26] = test system: DERL-7 (IL-2 2.5 ng/mL); assay: as above; conditions: 72 h
[27] = test system: normal primary NK cells, pool 2 (3 donors) (IL-2 2.5 ng/mL); assay: as above; conditions: 72 h
[28] = test system: IMC-1 (IL-2 20 ng/mL); assay: as above; conditions: 72 h

COc1ccc(S(=O)(=O)Nc2cccnc2Nc2ccc(O)cc2)cc1 [ABT-751] (max concentration tested 10000 nM)
percent inhibition of viability [%]
Conditions | 1 nM | 10 nM | 100 nM | 1000 nM | 10000 nM
[1] | 2.34 | 4.2 | 3.33 | 57.7 | 58.5
[16] | -0.28 | -14.8 | -13.9 | 90.3 | 83.4
[17] | 7.18 | 10.3 | 18.4 | 62.9 | 74.9
[18] | -9.52 | -12.6 | -7.29 | 0.64 | 11.6
[19] | -0.83 | 2.36 | 14.9 | 104 | 104
[20] | 4.41 | 1.96 | 4.78 | 13.2 | 16.7
[21] | -0.79 | 0.15 | 23.9 | 70.5 | 71.2
[22] | 4.6 | 3.35 | 37.3 | 92.8 | 91.3
[23] | 3.24 | 3.8 | 13.6 | 100 | 96.2
[24] | 3.22 | 10.5 | 50.7 | 81.7 | 89.2
[25] | 1.2 | -5.61 | -12 | 16.9 | 49.5
[26] | 5.8 | 5.64 | 3.05 | 99.1 | 99
[27] | 0.28 | 3.85 | 0.94 | 8.44 | 14.7
[28] | 1.24 | 2.22 | 4.35 | 99.6 | 99.6

Conditions | drug sensitivity score
[2] | 15.4
[3] | 13.8
[4] | 0.04
[5] | 20.6
[6] | 1.19
[7] | 16.3
[8] | 21.4
[9] | 20.3
[10] | 21.9
[11] | 5.02
[12] | 18.2
[13] | 0.52
[14] | 18.5
[15] | 11.1

Cc1ccc(C(=O)N(CCCN)[C@@H](c2oc3cc(Cl)ccc3c(=O)c2Cc2ccccc2)C(C)C)cc1 (max concentration tested 100 nM)
percent inhibition of viability [%]
Conditions | 0.01 nM | 0.1 nM | 1 nM | 10 nM | 100 nM
[1] | 0.7 | -0.13 | 0.62 | 47.5 | 60.9
[16] | 7.05 | -6.08 | 0.2 | 79.2 | 94.4
[17] | -6.39 | -3.85 | -7.56 | 25.9 | 57.9
[18] | -6.46 | -14.6 | 7.89 | 0.13 | 9.64
[19] | 2.63 | -2.09 | 3.33 | 98.1 | 108
[20] | -4.72 | -7.26 | 16.7 | 13.5 | 15.5
[21] | -1.37 | -2.68 | 5 | 71.1 | 80.5
[22] | -6.69 | -0.53 | 4.14 | 12.2 | 92.1
[23] | -0.9 | -3.95 | -3.98 | 6.11 | 67.4
[24] | -16.1 | -20.8 | 5.75 | 78 | 91.8
[25] | -14 | -28.1 | 6.55 | -12.4 | 0.78
[26] | -6.36 | -10.3 | -3.04 | 12.1 | 100
[27] | -6.06 | -2.94 | 7.66 | 13.1 | 9.78
[28] | -7.61 | -1.73 | 0.06 | 99.8 | 101

Conditions | drug sensitivity score
[2] | 14.5
[3] | 6.54
[4] | 0
[5] | 18.2
[6] | 3.16
[7] | 13.7
[8] | 7.14
[9] | 4.68
[10] | 15
[11] | 0
[12] | 7.54
[13] | 1.26
[14] | 17.9
[15] | 8.92

C/C(=C\c1csc(C)n1)[C@@H]1C[C@@H]2O[C@]2(C)CCC[C@H](C)[C@H](O)[C@@H](C)C(=O)C(C)(C)[C@@H](O)CC(=O)N1 [Ixabepilone] (max concentration tested 1000 nM)
percent inhibition of viability [%]
Conditions | 0.1 nM | 1 nM | 10 nM | 100 nM | 1000 nM
[1] | -1.18 | -8.46 | -3.17 | -2.89 | 56.2
[16] | 1.14 | -23.1 | -11 | -7.09 | 87.4
[17] | -14.5 | -15 | -11.8 | -8.42 | 52.3
[18] | -13 | -15.1 | -13.4 | -8.88 | -3.61
[19] | -4.44 | -6.03 | -7.83 | 2.2 | 99.9
[20] | -11.4 | -5.18 | -5.26 | -11.3 | 0.09
[21] | -10.3 | -9.56 | -5.83 | -4.02 | 68.7
[22] | -7.7 | -17.5 | -9.17 | -20.4 | 92
[23] | -0.47 | -4.36 | -8.15 | 1.21 | 92.3
[24] | 6.18 | 12.8 | -13.9 | -4.41 | 75.4
[25] | -34.8 | -25.5 | -23.3 | -10.4 | -12
[26] | -1.92 | -1.52 | 3.37 | -3.24 | 99.5
[27] | -8.83 | -5.74 | -1.71 | -8.89 | 4.45
[28] | -7.65 | -4.14 | -5.18 | -8.88 | 99.5

Conditions | drug sensitivity score
[2] | 4.34
[3] | 2.26
[4] | 0
[5] | 5.84
[6] | 0
[7] | 3.45
[8] | 4.08
[9] | 5.3
[10] | 3.82
[11] | 0
[12] | 5.27
[13] | 0
[14] | 4.92
[15] | 2.77

COc1ccc(-c2ccc3ncc4c(c3c2)n(-c2ccc(N3CCNCC3)c(C(F)(F)F)c2)c(=O)n4C)cn1 [NVP-BGT226] (max concentration tested 1000 nM)
percent inhibition of viability [%]
Conditions | 0.1 nM | 1 nM | 10 nM | 100 nM | 1000 nM
[1] | -0.83 | 1.88 | 18.5 | 46.3 | 99.4
[16] | -10.6 | -18.4 | 35.3 | 51.1 | 93.4
[17] | -0.77 | 1.29 | 25.3 | 57.2 | 94.7
[18] | -4.63 | -3.38 | 9.25 | 46.3 | 99
[19] | -2.44 | 1.07 | 4.41 | 76.8 | 95.9
[20] | -7.84 | -7.37 | 7.07 | 21.4 | 98.8
[21] | -4.92 | -1.99 | 27.6 | 76.4 | 95.7
[22] | -5 | -4.68 | 24.6 | 74.2 | 96.2
[23] | -4.65 | -0.4 | 10.2 | 53.6 | 74.2
[24] | 8.89 | 4.85 | 13.6 | 64.3 | 98.2
[25] | 5.35 | -4.97 | 14.6 | 59.2 | 99
[26] | -4.47 | 7.95 | 55.7 | 89 | 99.7
[27] | -6.87 | 0.35 | 13.2 | 39 | 99.7
[28] | -2.15 | -4.82 | -34.6 | 55.1 | 97.2

Conditions | drug sensitivity score
[2] | 13.7
[3] | 14.1
[4] | 10.9
[5] | 14.8
[6] | 8.86
[7] | 17.5
[8] | 16.7
[9] | 11.3
[10] | 14.1
[11] | 13.2
[12] | 24
[13] | 9.95
[14] | 11.9
[15] | 11.6

Cc1nc(Nc2ncc(C(=O)Nc3c(C)cccc3Cl)s2)cc(N2CCN(CCO)CC2)n1 [Dasatinib] (max concentration tested 1000 nM)
percent inhibition of viability [%]
Conditions | 0.1 nM | 1 nM | 10 nM | 100 nM | 1000 nM
[1] | -0.95 | 4.04 | 19.2 | 3.69 | 18.7
[16] | -6.62 | -1.79 | 12 | 30.8 | 50.2
[17] | -0.36 | 1.21 | 4.62 | 14.5 | 34
[18] | -0.11 | 19.3 | 13.1 | 15.4 | 19.5
[19] | -4.78 | -5.41 | 2.42 | 4.68 | 15
[20] | 0.39 | 14.8 | -5.88 | -19.1 | -19.4
[21] | -0.77 | -3.69 | 1.85 | 9.09 | 26.2
[22] | -15.2 | -20 | -16.4 | -1 | 22.6
[23] | -6.9 | -3.71 | 0.56 | 23 | 39.6
[24] | 26.1 | -6.71 | -10.2 | 3.42 | 33.2
[25] | -8.65 | 23.5 | 15.4 | 12.1 | 3.61
[26] | 2.24 | 8.32 | 14.1 | 5.36 | 23.2
[27] | -3.84 | 18.3 | 1.6 | 0.44 | 6.62
[28] | -4.24 | -3.41 | -7.41 | -6.36 | 8.01

Conditions | drug sensitivity score
[2] | 6.85
[3] | 2.92
[4] | 6.61
[5] | 0.45
[6] | 0
[7] | 2.02
[8] | 0.7
[9] | 4.71
[10] | 2.07
[11] | 0
[12] | 1.68
[13] | 0
[14] | 0
[15] | 1.3
